# Read-outs that look alike come from different tables or passages of the source.
# What was measured:
# [1] = test system: TNFα release from THP-1 cells; test: TNFα release from LPS-stimulated THP-1 cells; assay type: cell-based
# Description: Compounds of the invention are screened for the ability to inhibit TNFα and IL-1β release from THP-1 cells stimulated with lipopolysaccharide (LPS) in vitro. The ability of compounds to inhibit TNFα and IL-1β release in this in vitro assay is correlated with the inhibition of p38 activity and TNFα and IL-1β expression in vivo, and is therefore an indicator of potential in vivo therapeutic activity (Lee J. C. et al, Ann. N.Y. Acad. Sci. 696: 149-170, 1993 and Nature, 372: 739-746, 1994).
# THP-1 cells from ATCC (TIB202) are maintained at 37° C., 5% CO2 in RPMI 1640 media (MediaTech, Herndon, Va.) containing 4.5 g/L glucose, supplemented with 10% fetal bovine serum, 1% penicillin/streptomycin and 50 μM β-mercaptoethanol.
# Test compounds are initially dissolved in RPMI media with 1% DMSO (v/v). Compounds are then serially diluted in RPMI media for all subsequent dilutions. The assay is performed under sterile conditions. THP-1 cells at a culture density of 6-8×10^5 cells/ml are collected and resuspended in the RPMI media at 10^6 cells/ml. 100 μl of resuspended cells are added to each well, which contain 100 μl of a test compound. Test compounds are prepared at twice the final concentration. Final DMSO concentration is no more than 0.5% (v/v). Cells are preincubated with compound for 30 minutes at 37° C., 5% CO2 prior to stimulation with lipopolysaccharide (LPS) (Sigma L-2880, 4 mg/ml stock in PBS). The final LPS concentration in each well is 10 or 30 μg/ml for TNFα and IL-1β release, respectively. Unstimulated control cell suspensions receive PBS vehicle only. Cell mixtures are incubated for 18 or 48 hours for TNFα and IL-1β release, respectively. 150 μl of supernatants are taken and transferred to a fresh plate and stored at −20° C. until further analysis.
# p38α = molecular target: T1, p38α (Homo sapiens, UniProt Q16539); test: p38 MAP Kinase assay, ATF2 phosphorylation (ELISA); assay type: biochemical; settings: 40 μM ATP
# T1 construct: p38 MAP Kinases are recombinant human full-length proteins with an amino-terminal GST fusion; GST (N); purchased Upstate (Charlottesville, Va.); host or cells: E. coli
# Outline: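 Recombinant full-length GST-tagged human p38α (6 ng) pre-incubated 15 min at room temperature with compound, then reacted 30 min at 37° C with 40 μM ATP and 1.25 μM GST-ATF2 (aa 19-96) in HEPES pH 7.5/MgCl2 buffer. EDTA stop; ATF2 Thr69 phosphorylation measured by anti-phospho-ATF2 ELISA at 450 nm.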
# [2] = Homo sapiens, THP-1, 18 h, LPS 10 μg/ml, 18 hours, read-out: TNFα (THP-1) IC50
# T1 sequence (Q16539 whole entry, the tested form may be a part): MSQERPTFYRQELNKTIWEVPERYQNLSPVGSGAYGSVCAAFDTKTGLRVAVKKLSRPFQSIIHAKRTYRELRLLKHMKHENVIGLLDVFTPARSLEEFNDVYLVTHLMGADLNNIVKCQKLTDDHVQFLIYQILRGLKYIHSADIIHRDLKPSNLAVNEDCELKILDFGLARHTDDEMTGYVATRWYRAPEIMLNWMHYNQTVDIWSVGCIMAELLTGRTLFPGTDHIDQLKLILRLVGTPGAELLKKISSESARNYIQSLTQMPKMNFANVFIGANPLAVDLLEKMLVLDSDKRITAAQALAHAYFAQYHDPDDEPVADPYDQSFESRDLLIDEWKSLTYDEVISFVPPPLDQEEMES
Structure (SMILES),"IC50 [1, 2]",IC50 (p38α),"IC50 ([1]; Homo sapiens, THP-1, 18 h, read-out: TNFα (THP-1) IC50 (nM))","IC50 ([1]; LPS 10 μg/ml, 18 hours, read-out: TNFα (THP-1) IC50)"
CCOC(=O)N1CCC(Nc2nccc(-c3c(-c4ccc(F)cc4)nc4sccn34)n2)CC1 [CCXVII],7.84 nM,0.00119 µM,–,–
CCCNc1nccc(-c2c(-c3ccc(F)cc3)nc3sccn23)n1 [CCXVI],5.15 nM,0.00468 µM,–,–
COCC(C)Nc1nccc(-c2c(-c3ccc(F)cc3)nc3sccn23)n1 (centres unmarked) [CCXV],8.58 nM,0.00232 µM,–,–
CCCC[C@@H](CO)Nc1nccc(-c2c(-c3ccc(F)cc3)nc3sccn23)n1 [CCXXII],49.6 nM,0.00545 µM,–,–
O[C@H]1CC[C@H](Nc2nccc(-c3c(-c4ccc(F)cc4)nc4sccn34)n2)CC1 [CCXXI],5.56 nM,0.00157 µM,–,–
"CC(C)(C)OC(=O)N1CCC(Nc2nccc(-c3c(-c4ccc(F)cc4)nc4sccn34)n2)CC1 [CCXXXIII, 4-{4-[6-(4-fluorophenyl)-imidazo[2,1-b]thiazol-5-yl]-pyrimidin-2-ylamino}-piperidine-1-carboxylic acid tert-butyl ester]",76.9 nM,0.00224 µM,–,–
CC(C)[C@H](CO)Nc1nccc(-c2c(-c3ccc(F)cc3)nc3sccn23)n1 [CCXXXII],11.1 nM,0.00206 µM,–,–
Oc1ccc(CCNc2nccc(-c3c(-c4ccc(F)cc4)nc4sccn34)n2)cc1 [CCXXXIX],21 nM,0.00582 µM,–,–
CC(C)[C@@H](CO)Nc1nccc(-c2c(-c3ccc(F)cc3)nc3sccn23)n1 [CCXXXI],5.67 nM,0.00113 µM,–,–
CC(C)(C)OC(=O)N1CCC(CNc2nccc(-c3c(-c4ccc(F)cc4)nc4sccn34)n2)CC1 [CCXXXVIII],162 nM,0.0876 µM,–,–
CC(C)(C)OC(=O)N1CCCCC1CNc1nccc(-c2c(-c3ccc(F)cc3)nc3sccn23)n1 (centres unmarked) [CCXXXVII],113 nM,0.107 µM,–,–
CC(C)(C)OC(=O)N1CCCC(CNc2nccc(-c3c(-c4ccc(F)cc4)nc4sccn34)n2)C1 (centres unmarked) [CCXXXVI],162 nM,0.0818 µM,–,–
CC[C@H](CO)Nc1nccc(-c2c(-c3ccc(F)cc3)nc3sccn23)n1 [CCXXXV],2.95 nM,0.00208 µM,–,–
CC(C)(CO)CNc1nccc(-c2c(-c3ccc(F)cc3)nc3sccn23)n1 [CCXX],2.41 nM,0.00156 µM,–,–
COc1cccc(-c2nc3sccn3c2-c2ccnc(N[C@H](CO)C(C)C)n2)c1 [CC],93.8 nM,0.112 µM,–,–
CC(C)[C@H](CO)Nc1nccc(-c2c(-c3ccc(F)cc3)nc3occn23)n1 [CIII],20 nM,0.00757 µM,–,–
C[C@H](O)[C@H](CO)Nc1nccc(-c2c(-c3ccc(F)cc3)nc3occn23)n1 [CIV],–,0.00862 µM,6 nM,–
CCC(CO)(CO)Nc1nccc(-c2c(-c3ccc(F)cc3)nc3occn23)n1 [CIX],19.8 nM,0.0305 µM,–,–
CCOc1nccc(-c2c(-c3ccc(F)cc3)nc3sccn23)n1 [CLI],284 nM,0.122 µM,–,–
COc1nccc(-c2c(-c3ccc(F)cc3)nc3sccn23)n1 [CLV],402 nM,0.286 µM,–,–

Structure (SMILES),"IC50 [1, 2]",IC50 (p38α),"IC50 ([1]; Homo sapiens, THP-1, 18 h, read-out: TNFα (THP-1) IC50 (nM))","IC50 ([1]; LPS 10 μg/ml, 18 hours, read-out: TNFα (THP-1) IC50)"
CC(C)C(CO)Nc1nccc(-c2c(-c3ccc(F)cc3)nc3sccn23)n1 (centres unmarked) [CLXXII],48.1 nM,0.00467 µM,–,–
COC(=O)[C@@H](CC(C)C)Nc1nccc(-c2c(-c3ccc(F)cc3)nc3sccn23)n1 [CLXXI],3970 nM,0.0149 µM,–,–
OC[C@H](Cc1ccccc1)Nc1nccc(-c2c(-c3ccc(F)cc3)nc3sccn23)n1 [CLXXXI],138 nM,0.176 µM,–,–
CCC(CO)(CO)Nc1nccc(-c2c(-c3ccc(F)cc3)nc3sccn23)n1 [CLXXX],57.4 nM,0.0808 µM,–,–
Fc1ccc(-c2nc3sccn3c2-c2ccnc(OCC3CC3)n2)cc1 [CL],218 nM,0.256 µM,–,–
CCC[C@@H](CO)Nc1nccc(-c2c(-c3ccc(F)cc3)nc3occn23)n1 [CVIII],11.7 nM,0.00311 µM,–,–
C[C@@H](O)[C@@H](CO)Nc1nccc(-c2c(-c3ccc(F)cc3)nc3occn23)n1 [CVII],112 nM,0.0638 µM,–,–
CCC[C@H](CO)Nc1nccc(-c2c(-c3ccc(F)cc3)nc3occn23)n1 [CVI],30.6 nM,0.0052 µM,–,–
C[C@H](CO)Nc1nccc(-c2c(-c3ccc(F)cc3)nc3occn23)n1 [CV],8.67 nM,0.00309 µM,–,–
CC(CO)Nc1nccc(-c2c(-c3ccc(F)cc3)nc3sccn23)n1 (centres unmarked) [CXCIII],8.38 nM,0.00619 µM,–,–
COc1ccc(CCNc2nccc(-c3c(-c4ccc(F)cc4)nc4occn34)n2)cc1 [CXIII],127 nM,0.00788 µM,–,–
Oc1ccc(CCNc2nccc(-c3c(-c4ccc(F)cc4)nc4occn34)n2)cc1 [CXII],13.1 nM,0.00345 µM,–,–
Fc1ccc(-c2nc3occn3c2-c2ccnc(NCc3nc4ccccc4[nH]3)n2)cc1 [CXIV],913 nM,0.183 µM,–,–
CCCC[C@H](CO)Nc1nccc(-c2c(-c3ccc(F)cc3)nc3occn23)n1 [CXI],65.9 nM,0.0112 µM,–,–
Fc1ccc(CNc2nccc(-c3c(-c4ccc(F)cc4)nc4sccn34)n2)cc1 [CXLIV],182 nM,0.0541 µM,–,–
Fc1ccc(-c2nc3sccn3c2-c2ccnc(OCc3ccccc3)n2)cc1 [CXLIX],391 nM,0.152 µM,–,–
CC(C)(CO)Nc1nccc(-c2c(-c3ccc(F)cc3)nc3occn23)n1 [CXVIII],26.3 nM,0.00291 µM,–,–
OC1(CNc2nccc(-c3c(-c4ccc(F)cc4)nc4occn34)n2)CCCCC1 [CXVII],47 nM,0.0206 µM,–,–
Fc1ccc(-c2nc3occn3c2-c2ccnc(NCCN3CCCCC3)n2)cc1 [CXVI],376 nM,0.236 µM,–,–
Nc1ccc(CCNc2nccc(-c3c(-c4ccc(F)cc4)nc4occn34)n2)cc1 [CXV],41.9 nM,0.00173 µM,–,–

Structure (SMILES),"IC50 [1, 2]",IC50 (p38α),"IC50 ([1]; Homo sapiens, THP-1, 18 h, read-out: TNFα (THP-1) IC50 (nM))","IC50 ([1]; LPS 10 μg/ml, 18 hours, read-out: TNFα (THP-1) IC50)"
OC1(CNc2nccc(-c3c(-c4ccc(F)cc4)nc4occn34)n2)CCCc2ccccc21 (centres unmarked) [CXXIII],99 nM,0.0272 µM,–,–
NS(=O)(=O)c1ccc(CCNc2nccc(-c3c(-c4ccc(F)cc4)nc4occn34)n2)cc1 [CXXII],22.7 nM,0.00544 µM,–,–
CC(CN(C)C)Nc1nccc(-c2c(-c3ccc(F)cc3)nc3occn23)n1 (centres unmarked) [CXXIV],67.7 nM,0.0596 µM,–,–
Fc1ccc(CCNc2nccc(-c3c(-c4ccc(F)cc4)nc4occn34)n2)cc1 [CXXI],26.4 nM,0.0112 µM,–,–
NC(=O)[C@H](Cc1ccccc1)Nc1nccc(-c2c(-c3ccc(F)cc3)nc3occn23)n1 [CXXVIII],1390 nM,0.071 µM,–,–
CC(C)(Nc1nccc(-c2c(-c3ccc(F)cc3)nc3occn23)n1)C(O)c1ccccc1 (centres unmarked) [CXXVII],249 nM,0.0285 µM,–,–
C[C@@H](Nc1nccc(-c2c(-c3ccc(F)cc3)nc3occn23)n1)C(N)=O [CXXVI],86.1 nM,0.0294 µM,–,–
Fc1ccc(-c2nc3occn3c2-c2ccnc(NCCN3CCN(Cc4ccccc4)CC3)n2)cc1 [CXXV],1360 nM,0.258 µM,–,–
CS(=O)(=O)c1nccc(-c2c(-c3ccccc3)nc3sccn23)n1 [CXXXII],> 10000 nM,0.373 µM,–,–
OC(CNc1nccc(-c2c(-c3ccc(F)cc3)nc3occn23)n1)COc1ccccc1 (centres unmarked) [CXX],171 nM,0.0365 µM,–,–
OC1CCCCC1Nc1nccc(-c2c(-c3ccc(F)cc3)nc3occn23)n1 (centres unmarked) [CX],15 nM,0.0218 µM,–,–
CC(C)Nc1nccc(-c2c(-c3ccc(F)cc3)nc3occn23)n1 [C],3.19 nM,0.000893 µM,–,–
Fc1ccc(-c2nc3occn3c2-c2ccnc(NCCCN3CCOCC3)n2)cc1 [LIII],236 nM,0.361 µM,–,–
OC(CNc1nccc(-c2c(-c3ccc(F)cc3)nc3occn23)n1)c1ccccc1 (centres unmarked) [LII],–,0.0545 µM,–,60.9 nM
OCC1(Nc2nccc(-c3c(-c4ccc(F)cc4)nc4occn34)n2)CCCC1 [LIV],11.8 nM,0.0302 µM,–,–
O[C@H]1CC[C@H](Nc2nccc(-c3c(-c4ccc(F)cc4)nc4occn34)n2)CC1 [LIX],55.4 nM,0.00179 µM,–,–
Fc1ccc(-c2nc3occn3c2-c2ccnc(NCCc3ccncc3)n2)cc1 [LI],94.4 nM,0.00806 µM,–,–
O[C@H]1Cc2ccccc2[C@H]1Nc1nccc(-c2c(-c3ccc(F)cc3)nc3occn23)n1 [LVIII],1190 nM,0.0979 µM,–,–
